Laboratory results from patent publication US20220112225A1, “ANANDAMIDE COMPOUNDS” (priority 2019, published 2022).

Experiments:
[1] = Brain homogenate re-analysis for Compound 2 after PO Compound 3 at 20 mg/kg; assay type: in vivo; settings: after dosing Compound 3
Method: Re-analysis of the brain tissues harvested above (see Example 4) was conducted according to the following procedures and the data are shown in Table 3. • 1. 100 μL of brain homogenate was transferred to a 2 mL square matrix deep well plate, • 2. 300 μL acetonitrile (ACN) containing IS was dispensed on to the samples and mixed on a shaker. • 3. The samples were centrifuged for 15 min at 3500 rpm. • 4. 300 μL supernatant was transferred in to a fresh 2 mL square matrix deep well plate. • 5. Samples were concentrated using nitrogen then reconstituted in 80 μL of 50:50 ACN:MilliQ water and shaken on a plate shaker. • 6. Samples were then analyzed by LC-MS-MS.

[2] = PO JVC rat terminal PK study at 20 mg/kg (tissue distribution); assay type: in vivo; settings: rat brain after Compound 3 at 20 mg/kg PO, before the more sensitive method
Method: Compound 3 was orally dosed at 20 mg/kg to a group of nine, jugular vein cannulated, individually housed male Sprague Dawley rats that were fasted overnight and fed 4 h post-dose to assess its tissue distribution profile. Dosing was performed with 5 mL/kg dosing volumes with 5% DMSO, 95% water used as a dosing vehicle. Terminal blood samples (>230 μL) were taken from groups of 3 animals at each of 3 time-points post dose (1 h, 2 h, and 4 h) by cardiac puncture under CO2 into heparinised Eppendorf tubes (containing 5 μL heparin) on ice containing an equal quantity of water. Two 100 μL aliquots were then placed in duplicate 96 well plates on dry ice. Immediately after blood sampling, brain and eye pair samples were excised, weighed, rinsed, blotted, and snap frozen in liquid N2. Samples were stored in the freezer at −20° C. until bioanalysis.
Tissue samples were weighed and a volume of water 3 times the mass added to samples before homogenization. In the case of eyeballs the lens could not be homogenized, but all other tissues homogenized. The resulting data (tissue distribution parameters) are shown below in Table 2.

[3] = target: T1, hMfsd2a (Homo sapiens, UniProt Q8NA29); test: In vitro Mfsd2a transport, thin layer chromatography (TLC) analysis; assay type: cell-based; settings: transfected HEK293 cells, 50 μM test compound, 1 hour, iodine and cupric acetate stain
T1 construct: expressed in transfected cells; host or cells: HEK293
T1 sequence (Q8NA29 1-530 isoform Q8NA29-2): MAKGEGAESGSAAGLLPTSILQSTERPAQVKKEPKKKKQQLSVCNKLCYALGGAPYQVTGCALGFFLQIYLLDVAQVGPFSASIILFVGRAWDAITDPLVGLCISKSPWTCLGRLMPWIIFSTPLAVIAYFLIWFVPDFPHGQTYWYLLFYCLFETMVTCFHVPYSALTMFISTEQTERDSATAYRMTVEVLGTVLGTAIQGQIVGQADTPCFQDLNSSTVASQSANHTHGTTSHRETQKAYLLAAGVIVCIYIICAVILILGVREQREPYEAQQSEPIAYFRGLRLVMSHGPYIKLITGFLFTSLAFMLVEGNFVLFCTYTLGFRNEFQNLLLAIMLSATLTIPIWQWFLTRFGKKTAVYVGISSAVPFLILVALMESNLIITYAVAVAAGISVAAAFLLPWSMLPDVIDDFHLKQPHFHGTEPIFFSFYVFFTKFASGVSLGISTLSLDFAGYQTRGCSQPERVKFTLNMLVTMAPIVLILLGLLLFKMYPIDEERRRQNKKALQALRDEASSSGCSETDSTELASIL
Method: (§1) The assay was conducted in a low throughput 6-well format with HEK293 cells prepared and then transfected in duplicate wells with plasmids containing either the wildtype (WT) version of hMfsd2a, the D97A mutant version, or an empty vector as control. Uptake into the ceils was assessed by both thin-layer chromatography (TLC) and ultrahigh performance liquid chromatography hyphenated mass spectrometry.
(§2) HEK293 cells were seeded at 6.25×10^5 per 6-well in 2 mL of DMEM with 10% FBS and 1% penicillin-streptomycin (P/S) media (Sigma) and incubated overnight at 37° C. in 5% CO2. Cells were checked for confluency the next morning. On a per well basis the following lipid mix was generated, 6 μL of Lipofectamine 2000 was added dropwise to 200 μL of OptiMEM, this was left to stand for 5 minutes at room temperature (RT). 1 μg of hMfsd2a WT, D97A or empty plasmid was prepared in 200 μL of OptiMEM as appropriate for each well; the Lipofectamine 2000 in OptiMEM solution was then added dropwise to a total volume of 400 μL (this can be scaled to support the number of wells/plates to be assayed). This transfection preparation was then incubated at RT for 20 minutes. DMEM with 10% FBS and no P/S media was warmed to 37° C., the HEK293 plate media was changed and the cells washed carefully with 1 mL of the warmed DMEM with 10% FBS no P/S media, 1.6 mL of the warmed DMEM with 10% FBS no P/S media was then added to each well. 400 μL of the transfection preparation was then added dropwise to each well as appropriate and the plate was gently swirled in a circular motion. The plate was then incubated overnight at 37° C. in 5% CO2.
(§3) Compound Incubation and Preparation of Analysis Samples Compound stock solutions were prepared in a 12% BSA in PBS solution such that a 40 μL spike into 2 ml, of plain DMEM would yield a concentration of 50 μM of test compound (the compound treated media). Remaining compound stock solution in 12% BSA in PBS was frozen at −20° C. to allow for media stability testing. The HEK293 6-well plate was removed from the incubator and the wells gently rinsed with 1 mL of plain DMEM that had been prewarmed to 37° C. 2 mL of the compound treated media was then added to each well. A 100 μL sample of the compound treated media was sampled to represent a T=0 h sample; 5 μL of this sample (the remainder was reserved and frozen in case of re-analysis being required) was diluted with 45 μL of DMEM and crashed with 50 μL MeCN in a 96-well plate which was sealed and kept on ice. The HEK293 6-well plate was then incubated at 37° C. in 5% CO2 for 1 hour, the plate was then removed from the incubator and a 100 μL sample of media taken from each well to represent a T=1 h sample; 5 μL of this sample (the remainder was reserved and frozen in case of re-analysis being required) was diluted with 45 μL of DMEM and crashed with 50 μL MeCN into the 96-well plate which was re-sealed and stored at −20° C. The remaining media was then removed from the HEK293 6-well plate, the wells were gently rinsed twice with 1 mL of 0.5% BSA in DMEM, the media was then removed and the 6-well plate allowed to dry completely at RT. 1 ml of 3:2 Hexane:Isopropanol (HIP) was added to each well in a fume cupboard and the plate allowed to stand for 30 minutes at RT without shaking. The HIP solution was then transferred to 2 mL Eppendorf tubes, and the process was repeated with a second 1 mL aliquot of HIP and the two aliquots combined. The HIP samples were then dried down under a nitrogen stream.
Silica gel plates were prepared in a fume cupboard by initially drawing a line 1.5 cm from the bottom edge of the plate and then drawing sample lanes with a width of 1 cm and a separation of 0.5 cm between lanes. TLC buffer for phospholipids was prepared as a 31:62:7 solvent mix of Methanol:Chloroform:Ammonium Hydroxide. Plates were pre-run in a humid chamber containing 200 mL of the TLC buffer until the solvent front was 1.5 cm from the plate edge, the plate was then allowed to dry. […]

[4] = In vitro brain homogenate stability, mouse; assay type: in vitro ADME; settings: for half-life at 1 μM: 37° C., test compound at 1 μM, read-out: Mouse t1/2; for Clearance in brain homogenate stability study (in words): one hour incubation, increasing formation of Compound 2
Method: (§4) Fresh rodents brains were snap frozen immediately after collection and the assay performed on the same day. Brains were pre-incubated at 37° C. before being spiked with test compound at 1 μM. Samples were collected across 6 time points (0, 10, 20, 30, 45 and 60 minutes) and crashed in cold acetonitrile containing an internal standard (Leucine Enkephalin) and kept on ice until all samples had been collected. The samples were then shaken and centrifuged. 100 μL of supernatant was transferred to a plate containing 50 μL of MilliQ water and mixed. These plates were analyzed by LC-MS/MS over the 6 time points, where the percentage of test compound remaining was calculated using the peak area of the initial timepoint (T=0 minutes) as 100%. The natural log of the percentage remaining was then calculated. The natural log of the percentage remaining versus time (minutes) was plotted on a graph and the gradient of this graph was used to calculate the elimination rate constant (K), The half-life (t1/2) of test compound was calculated using the natural log of 2 divided by the elimination rate constant. The percentage of Compound 2 formed is reported below in Tables 4-6. FIGS. 9A-9F show results of the brain homogenate stability conducted with representative compounds of the Examples.

[5] = target: T1, hMfsd2a; test: In vitro Mfsd2a transport, UPLC-MS-MS analysis; assay type: cell-based; settings: transfected HEK293 cells, 50 μM test compound, 1 hour
Method: as §1, §2, §3
HIP samples prepared as described above were reconstituted in 100 μL of MeCN, vortex mixed and inverted multiple times to ensure all surfaces of the Eppendorf tube were rinsed with the MeCN and finally pulse centrifuged. […]

[6] = In vitro brain homogenate stability, rat; assay type: in vitro ADME; settings: for half-life at 1 μM: 37° C., test compound at 1 μM, read-out: Rat t1/2; for Clearance in brain homogenate stability study (in words): one hour incubation, increasing formation of Compound 2
Method: as §4

Structure (SMILES): CCCCC/C=C\C/C=C\C/C=C\C/C=C\CCCC(=O)NCCO [Compound 2, (5Z,8Z,11Z,14Z)—N-(2-hydroxyethyl)icosa-5,8,11,14-tetraenamide, reference compound]
- Detection of Compound 2 in the brain, in-vivo rat CNS penetration data using Compound 3 [1]: detected in the brain
- Detection of Compound 2 in brain tissues, first analysis [2]: not detected above the lower limit of quantification

Structure (SMILES): CCCCC/C=C\C/C=C\C/C=C\C/C=C\CCCC(=O)NCCOP(=O)(O)OCCN [Compound 4, 2-ammonioethyl (2-((5Z,8Z,11Z,14Z)-icosa-5,8,11,14-tetraenamido)ethyl) phosphate]
- Transport via Mfsd2a: TLC band intensity in WT cells compared with D97A mutant Mfsd2a and/or empty vector cells [3]: transported via Mfsd2a
- half-life at 1 μM [4]: 2 h
- Clearance in brain homogenate stability study (in words) [4]: demonstrated a level of clearance
- Transport via Mfsd2a: concentration in HIP samples from WT cells compared with D97A mutant Mfsd2a and/or empty vector cells [5]: transported via Mfsd2a
- half-life at 1 μM [6]: 1.27 h
- Clearance in brain homogenate stability study (in words) [6]: demonstrated a level of clearance

Structure (SMILES): CCCCC/C=C\C/C=C\C/C=C\C/C=C\CCCC(=O)NCCOP(=O)(O)OCC(N)C(=O)O (stereo not shown) [Compound 5, 2-ammonio-2-carboxyethyl (2-((5Z,8Z,11Z,14Z)-icosa-5,8,11,14-tetraenamido)ethyl) phosphate]
- Transport via Mfsd2a: TLC band intensity in WT cells compared with D97A mutant Mfsd2a and/or empty vector cells [3]: transported via Mfsd2a
- half-life at 1 μM [4]: 4.3 h
- Clearance in brain homogenate stability study (in words) [4]: demonstrated a level of clearance
- Transport via Mfsd2a: concentration in HIP samples from WT cells compared with D97A mutant Mfsd2a and/or empty vector cells [5]: cannot be confirmed if the compound is transported via Mfsd2a
- half-life at 1 μM [6]: 2.1 h
- Clearance in brain homogenate stability study (in words) [6]: demonstrated a level of clearance

Structure (SMILES): CCCCC/C=C\C/C=C\C/C=C\C/C=C\CCCC(=O)NCCOC(=O)OCCOP(=O)([O-])OCC[N+](C)(C)C [Compound 6, 2-(((2-((5Z,8Z,11Z,14Z)-icosa-5,8,11,14-tetraenamido)ethoxy)carbonyl)oxy)ethyl (2-(trimethylammonio)ethyl) phosphate]
- Transport via Mfsd2a: TLC band intensity in WT cells compared with D97A mutant Mfsd2a and/or empty vector cells [3]: transported via Mfsd2a
- Transport via Mfsd2a: concentration in HIP samples from WT cells compared with D97A mutant Mfsd2a and/or empty vector cells [5]: transported via Mfsd2a

Structure (SMILES): CCCCC/C=C\C/C=C\C/C=C\C/C=C\CCCC(=O)NCCOC(=O)OCCCOP(=O)([O-])OCC[N+](C)(C)C [Compound 7, 3-(((2-((5Z,8Z,11Z,14Z)-icosa-5,8,11,14-tetraenamido)ethoxy)carbonyl)oxy)propyl (2-(trimethylammonio)ethyl) phosphate]
- Transport via Mfsd2a: TLC band intensity in WT cells compared with D97A mutant Mfsd2a and/or empty vector cells [3]: transported via Mfsd2a
- Transport via Mfsd2a: concentration in HIP samples from WT cells compared with D97A mutant Mfsd2a and/or empty vector cells [5]: transported via Mfsd2a

Structure (SMILES): CCCCC/C=C\C/C=C\C/C=C\C/C=C\CCCC(=O)NCCOC(=O)NCCOP(=O)([O-])OCC[N+](C)(C)C [Compound 8, 2-(((2-((5Z,8Z,11Z,14Z)-icosa-5,8,11,14-tetraenamido)ethoxy)carbonyl)amino)ethyl (2-(trimethylammonio)ethyl) phosphate]
- Transport via Mfsd2a: TLC band intensity in WT cells compared with D97A mutant Mfsd2a and/or empty vector cells [3]: transported via Mfsd2a
- Transport via Mfsd2a: concentration in HIP samples from WT cells compared with D97A mutant Mfsd2a and/or empty vector cells [5]: transported via Mfsd2a

Structure (SMILES): CCCCC/C=C\C/C=C\C/C=C\C/C=C\CCCC(=O)NOC(C)(O)COP(=O)([O-])OCC[N+](C)(C)C (stereo not shown) [Compound 20, 2-hydroxy-2-(((5Z,8Z,11Z,14Z)-icosa-5,8,11,14-tetraenamido)oxy)propyl (2-(trimethylammonio)ethyl) phosphate]
- Transport via Mfsd2a: TLC band intensity in WT cells compared with D97A mutant Mfsd2a and/or empty vector cells [3]: cannot be confirmed if the compound is transported via Mfsd2a
- Transport via Mfsd2a: concentration in HIP samples from WT cells compared with D97A mutant Mfsd2a and/or empty vector cells [5]: transported via Mfsd2a
